Results from ChEMBL document CHEMBL4020831, “Discovery of GDC-0853: A Potent, Selective, and Noncovalent Bruton's Tyrosine Kinase Inhibitor in Early Clinical Development” (J Med Chem, 2018).
In brackets after ≈: the same amount, converted by molar mass.

Key:
ERBB2 = ERBB2 (Homo sapiens, UniProt P04626); test: Inhibition of recombinant human cytoplasmic His-tagged ERBB2 expressed in baculovirus at 1 uM by Z'-LYTE assay
[1] = Permeability across apical to basolateral in MDCK1 cells; type: ADME, cell-based, Canis lupus familiaris; settings: dog, MDCK; read-out: permeability
[2] = Aqueous solubility of the compound in 0.1 N HCl; type: physicochemical; settings: buffer
[3] = Plasma clearance in rat at 0.2 mg/kg, iv or 1 mg/kg, po administered as single dose via cassette dosing; type: ADME, organism-based
Nav1.5 = Nav1.5 (Homo sapiens, UniProt Q14524); test: Inhibition of human Nav1.5 expressed in CHO cells at 1 uM incubated for 3 to 5 mins by Qpatch clamp assay; type: cell-based; settings: CHO cells expressing human Nav1.5
Chain of Nav1.5 (Q14524 whole entry): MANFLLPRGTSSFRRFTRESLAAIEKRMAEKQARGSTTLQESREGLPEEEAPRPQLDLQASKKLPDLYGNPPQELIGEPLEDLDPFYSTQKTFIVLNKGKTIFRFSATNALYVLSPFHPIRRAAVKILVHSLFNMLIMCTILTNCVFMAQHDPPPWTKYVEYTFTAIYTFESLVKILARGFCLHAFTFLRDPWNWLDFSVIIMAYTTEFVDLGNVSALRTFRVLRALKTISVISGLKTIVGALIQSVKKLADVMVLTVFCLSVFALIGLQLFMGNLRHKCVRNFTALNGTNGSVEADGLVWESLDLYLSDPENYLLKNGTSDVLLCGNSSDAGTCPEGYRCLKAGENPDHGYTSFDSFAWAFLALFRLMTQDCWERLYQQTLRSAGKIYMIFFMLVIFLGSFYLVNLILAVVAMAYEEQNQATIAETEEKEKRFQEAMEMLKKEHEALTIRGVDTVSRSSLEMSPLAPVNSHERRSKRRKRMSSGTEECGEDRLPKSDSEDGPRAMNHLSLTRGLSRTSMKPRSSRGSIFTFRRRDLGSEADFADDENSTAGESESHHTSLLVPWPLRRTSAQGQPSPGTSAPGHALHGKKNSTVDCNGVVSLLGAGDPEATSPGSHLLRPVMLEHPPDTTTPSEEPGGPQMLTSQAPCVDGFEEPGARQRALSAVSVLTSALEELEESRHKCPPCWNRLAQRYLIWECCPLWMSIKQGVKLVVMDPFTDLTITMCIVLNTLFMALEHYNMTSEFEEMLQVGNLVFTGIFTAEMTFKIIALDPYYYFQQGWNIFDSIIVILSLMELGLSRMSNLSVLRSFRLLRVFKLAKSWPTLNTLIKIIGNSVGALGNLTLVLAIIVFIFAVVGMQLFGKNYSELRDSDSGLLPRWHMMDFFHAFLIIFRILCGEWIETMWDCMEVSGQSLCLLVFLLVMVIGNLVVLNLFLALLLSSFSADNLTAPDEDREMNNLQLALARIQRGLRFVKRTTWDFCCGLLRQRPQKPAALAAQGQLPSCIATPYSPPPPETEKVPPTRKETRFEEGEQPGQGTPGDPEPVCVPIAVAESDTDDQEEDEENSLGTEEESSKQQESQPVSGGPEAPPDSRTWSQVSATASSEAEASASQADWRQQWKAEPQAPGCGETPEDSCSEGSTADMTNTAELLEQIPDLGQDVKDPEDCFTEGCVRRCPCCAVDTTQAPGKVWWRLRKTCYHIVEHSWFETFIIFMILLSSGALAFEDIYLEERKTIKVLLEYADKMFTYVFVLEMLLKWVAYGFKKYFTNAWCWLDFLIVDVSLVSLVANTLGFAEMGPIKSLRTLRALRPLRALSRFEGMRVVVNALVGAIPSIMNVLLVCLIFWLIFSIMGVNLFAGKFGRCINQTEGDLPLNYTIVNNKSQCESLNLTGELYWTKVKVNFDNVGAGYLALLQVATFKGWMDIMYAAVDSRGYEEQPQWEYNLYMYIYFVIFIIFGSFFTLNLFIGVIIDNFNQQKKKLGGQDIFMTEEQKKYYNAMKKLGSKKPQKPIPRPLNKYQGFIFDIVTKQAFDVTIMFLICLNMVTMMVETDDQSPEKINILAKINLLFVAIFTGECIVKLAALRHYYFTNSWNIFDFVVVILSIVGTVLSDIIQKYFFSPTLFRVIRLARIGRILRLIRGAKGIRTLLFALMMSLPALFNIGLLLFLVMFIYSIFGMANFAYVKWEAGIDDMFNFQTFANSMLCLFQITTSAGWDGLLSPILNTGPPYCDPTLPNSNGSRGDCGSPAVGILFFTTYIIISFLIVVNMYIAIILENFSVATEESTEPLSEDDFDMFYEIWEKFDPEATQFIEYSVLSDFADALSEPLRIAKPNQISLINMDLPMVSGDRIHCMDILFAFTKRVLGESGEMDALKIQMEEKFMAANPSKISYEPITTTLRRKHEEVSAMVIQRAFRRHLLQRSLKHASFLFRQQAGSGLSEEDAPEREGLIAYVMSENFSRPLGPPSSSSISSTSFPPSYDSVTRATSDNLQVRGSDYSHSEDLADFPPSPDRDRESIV

Salmonella typhimurium = test: Genotoxicity in Salmonella typhimurium TA1535 after 48 to 72 hrs in absence of liver S9 fraction by Ames test; type: toxicity; settings: salmonella enterica subsp. enterica serovar typhimurium
Escherichia coli = test: Genotoxicity in Escherichia coli WP2 harboring uvrA deletion mutant after 48 to 72 hrs in absence of liver S9 fraction by Ames test; type: toxicity
Cytochrome P450 3A4 = Cytochrome P450 3A4 (Homo sapiens, UniProt P08684); test: Inhibition of CYP3A4 (unknown origin); type: ADME
Chain of Cytochrome P450 3A4 (P08684 whole entry): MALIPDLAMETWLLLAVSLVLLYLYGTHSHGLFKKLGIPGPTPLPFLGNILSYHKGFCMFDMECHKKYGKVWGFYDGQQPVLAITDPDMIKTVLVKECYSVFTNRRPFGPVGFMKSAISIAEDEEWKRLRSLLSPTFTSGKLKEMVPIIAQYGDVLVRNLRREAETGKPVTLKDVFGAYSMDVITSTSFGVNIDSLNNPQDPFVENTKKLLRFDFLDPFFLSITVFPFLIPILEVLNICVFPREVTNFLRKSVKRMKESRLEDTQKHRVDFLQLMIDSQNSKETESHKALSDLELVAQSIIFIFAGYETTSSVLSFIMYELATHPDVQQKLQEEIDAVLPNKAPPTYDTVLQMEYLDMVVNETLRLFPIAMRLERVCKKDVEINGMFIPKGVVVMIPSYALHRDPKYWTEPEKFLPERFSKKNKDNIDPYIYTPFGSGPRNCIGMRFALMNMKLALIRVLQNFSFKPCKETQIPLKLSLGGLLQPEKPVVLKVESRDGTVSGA

Cytochrome P450 1A2 = Cytochrome P450 1A2 (Homo sapiens, UniProt P05177); test: Inhibition of CYP1A2 (unknown origin); type: ADME
Chain of Cytochrome P450 1A2 (P05177 whole entry): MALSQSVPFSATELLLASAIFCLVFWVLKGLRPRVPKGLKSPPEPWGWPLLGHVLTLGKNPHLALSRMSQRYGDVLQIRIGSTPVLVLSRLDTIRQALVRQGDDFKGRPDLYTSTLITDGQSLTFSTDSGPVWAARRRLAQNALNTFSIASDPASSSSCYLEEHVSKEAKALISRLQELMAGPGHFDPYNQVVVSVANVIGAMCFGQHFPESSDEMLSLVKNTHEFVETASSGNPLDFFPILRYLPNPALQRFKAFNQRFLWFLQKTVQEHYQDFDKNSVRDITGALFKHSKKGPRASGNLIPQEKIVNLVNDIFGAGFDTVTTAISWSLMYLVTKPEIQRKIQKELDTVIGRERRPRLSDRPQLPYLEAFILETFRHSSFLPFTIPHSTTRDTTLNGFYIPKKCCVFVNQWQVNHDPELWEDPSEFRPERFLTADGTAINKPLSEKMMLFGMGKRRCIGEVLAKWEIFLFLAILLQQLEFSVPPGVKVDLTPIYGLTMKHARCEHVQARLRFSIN

Rattus norvegicus [4] = test: Antiinflammatory activity in Lewis rat collagen-induced arthritis model assessed as reduction in ankle diameter AUC at 2 mg/kg, po administered bid for 16 days relative to control; type: functional; settings: 384 h
Rattus norvegicus [5] = test: Time at which plasma concentration stays above in vitro IC70 for BTK autophosphorylation at Y223 in rat whole blood in Lewis rat collagen-induced arthritis model at 1 to 16 mg/kg, po qd measured during 24 hrs dosing
Rattus norvegicus [6] = test: Time at which plasma concentration stays above in vitro IC90 for BTK autophosphorylation at Y223 in rat whole blood in Lewis rat collagen-induced arthritis model at 1 to 16 mg/kg, po qd measured during 24 hrs dosing
Rattus norvegicus [7] = test: Time at which plasma concentration stays above in vitro IC50 for BTK autophosphorylation at Y223 in rat whole blood in Lewis rat collagen-induced arthritis modelt at 0.125 to 2 mg/kg, po bid measured during 12 hrs dosing

Chain of ERBB2 (P04626 whole entry): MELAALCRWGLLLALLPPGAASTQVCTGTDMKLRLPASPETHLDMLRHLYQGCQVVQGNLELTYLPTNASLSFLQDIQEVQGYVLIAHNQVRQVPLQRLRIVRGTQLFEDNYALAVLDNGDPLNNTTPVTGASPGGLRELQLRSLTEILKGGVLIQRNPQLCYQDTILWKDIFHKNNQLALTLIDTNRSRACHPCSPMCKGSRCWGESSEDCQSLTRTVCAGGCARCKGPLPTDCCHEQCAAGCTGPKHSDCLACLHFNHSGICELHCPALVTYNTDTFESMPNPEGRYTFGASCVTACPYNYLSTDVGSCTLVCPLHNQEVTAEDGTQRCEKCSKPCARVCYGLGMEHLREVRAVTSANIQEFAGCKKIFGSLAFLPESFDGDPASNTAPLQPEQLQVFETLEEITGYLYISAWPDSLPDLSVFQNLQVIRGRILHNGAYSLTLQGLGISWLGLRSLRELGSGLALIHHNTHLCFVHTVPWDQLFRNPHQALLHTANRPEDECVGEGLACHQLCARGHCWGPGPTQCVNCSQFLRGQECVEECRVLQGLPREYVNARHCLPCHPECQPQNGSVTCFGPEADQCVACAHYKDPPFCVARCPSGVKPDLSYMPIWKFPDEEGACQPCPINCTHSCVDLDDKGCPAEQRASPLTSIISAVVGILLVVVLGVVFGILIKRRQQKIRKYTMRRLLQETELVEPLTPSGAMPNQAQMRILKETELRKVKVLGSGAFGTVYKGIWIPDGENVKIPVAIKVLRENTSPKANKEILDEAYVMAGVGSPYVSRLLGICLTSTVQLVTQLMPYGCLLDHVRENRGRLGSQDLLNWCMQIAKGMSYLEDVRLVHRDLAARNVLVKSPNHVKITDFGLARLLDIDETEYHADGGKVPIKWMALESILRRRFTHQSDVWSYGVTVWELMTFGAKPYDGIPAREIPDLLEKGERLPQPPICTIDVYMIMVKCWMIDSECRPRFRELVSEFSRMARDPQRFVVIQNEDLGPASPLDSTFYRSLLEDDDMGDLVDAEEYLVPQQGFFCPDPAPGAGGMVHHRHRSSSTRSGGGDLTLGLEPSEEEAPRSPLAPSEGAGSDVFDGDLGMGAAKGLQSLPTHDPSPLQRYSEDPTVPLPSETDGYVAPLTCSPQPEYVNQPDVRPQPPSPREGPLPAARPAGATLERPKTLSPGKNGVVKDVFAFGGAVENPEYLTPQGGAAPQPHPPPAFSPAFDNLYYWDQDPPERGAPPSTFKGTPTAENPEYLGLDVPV

inhibition at 1 µM (ERBB2): -1%
Papp A→B [1]: 15.1 ×10⁻⁶ cm/s
solubility [2]: 35.9 mg/mL (≈ 54 mM)
clearance [3]: 27.4 mL/min/kg
IC50 (Cytochrome P450 3A4): > 5 µM
IC50 (Cytochrome P450 1A2): > 5 µM
SMILES: C[C@H]1CN(C2COC2)CCN1c1ccc(Nc2cc(-c3ccnc(N4CCn5c(cc6c5CC(C)(C)C6)C4=O)c3CO)cn(C)c2=O)nc1 [FENEBRUTINIB]
inhibition at 1 µM (Nav1.5): 0.6%
Activity (Salmonella typhimurium): Non-Toxic
Activity (Escherichia coli): Non-Toxic
inhibition in vivo at 2 mg/kg (Rattus norvegicus [4]): 96%
Time (Rattus norvegicus [5]): 12 h
Time (Rattus norvegicus [6]): 12 h
Time (Rattus norvegicus [7]): 6 h
